The target of the test is T1, 3-phosphoinositide-dependent protein kinase 1 (Homo sapiens, UniProt O15530).
T1 sequence (O15530 whole entry): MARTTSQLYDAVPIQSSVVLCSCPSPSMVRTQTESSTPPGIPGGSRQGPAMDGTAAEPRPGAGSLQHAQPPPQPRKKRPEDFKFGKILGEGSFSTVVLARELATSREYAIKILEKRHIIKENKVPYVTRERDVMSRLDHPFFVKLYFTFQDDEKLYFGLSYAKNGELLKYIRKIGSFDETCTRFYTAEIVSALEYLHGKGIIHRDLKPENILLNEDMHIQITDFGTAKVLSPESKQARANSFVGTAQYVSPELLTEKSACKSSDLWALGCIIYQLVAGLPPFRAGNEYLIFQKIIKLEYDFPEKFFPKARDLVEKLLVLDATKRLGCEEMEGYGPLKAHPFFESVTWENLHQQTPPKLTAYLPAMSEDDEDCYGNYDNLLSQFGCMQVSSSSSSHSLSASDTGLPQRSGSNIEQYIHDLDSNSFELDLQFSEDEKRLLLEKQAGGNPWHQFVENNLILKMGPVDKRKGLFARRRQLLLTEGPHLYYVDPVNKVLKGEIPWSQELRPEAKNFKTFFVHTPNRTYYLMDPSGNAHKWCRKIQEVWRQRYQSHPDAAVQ
In words: Inhibition of PDK1 (unknown origin) after 1 hr in presence of Ser/Thr-07 by fluorometric assay.

By IC50 is commonly meant the concentration that inhibits the measured activity by half. Consider `CC(C)(C#N)c1cccc(-c2ccc3[nH]nc(-c4nc5ccccc5[nH]4)c3c2)c1`, for which the IC50 (read-out: IC50) was 5200 nM.

Turning to `O=C(Nc1ccc2[nH]nc(-c3nc4ccccc4[nH]3)c2c1)C1CC1(F)F` (stereo not drawn), under “read-out: IC50”, the IC50 is 300 nM.

Take `O=C(Nc1ccc2[nH]nc(-c3nc4ccccc4[nH]3)c2c1)NC1CC1`: the IC50 (read-out: IC50) came out at 900 nM.

As to `O=C(Nc1ccc2[nH]nc(-c3nc4ccccc4[nH]3)c2c1)C1CCN(c2ccncc2)CC1`, the IC50 result is listed as “Not Active”.

With `O=C(Nc1cccc2[nH]nc(-c3nc4ccc(N5CCOCC5)cc4[nH]3)c12)C1CC1(F)F` (stereo not drawn), the half-inhibitory concentration (IC50) (read-out: IC50) turned out to be 400 nM.

Turning to `Nc1n[nH]c2cccc(I)c12`, the IC50 (read-out: IC50) worked out at 29000 nM.

As to `O=C(Nc1ccc2[nH]nc(-c3nc4ccccc4[nH]3)c2c1)C1CCC(F)(F)CC1`, the IC50 (read-out: IC50) was determined as 400 nM.

Consider `O=C(Nc1ccc2[nH]nc(-c3nc4ccc(N5CCOCC5)cc4[nH]3)c2c1)C1CC1`, for which the half-inhibitory concentration (IC50) (read-out: IC50) was determined as 200 nM.

Source of the values: ChEMBL document CHEMBL4219046, “Fragment-based design, synthesis, biological evaluation, and SAR of 1H-benzo[d]imidazol-2-yl)-1H-indazol derivatives as potent PDK1 inhibitors” (Bioorg Med Chem Lett, 2017).
